According to patent publication US20040014790A1, “Tartrate salt of thiazolidinedione derivative” (priority 2000, published 2004):

Test: Solid state stability of the drug substance (HPLC assay for final content and degradation products)
Type: physicochemical
Settings: 1 month, product of Example 1
Description: The solid state stability of the drug substance was determined by storing approximately 1.0 g of the material in a glass bottle at i) 40° C./75% Relative Humidity (RH), open exposure, for 1 month and b) at 50° C., closed, for 1 month. The material was assayed by HPLC for final content and degradation products in both cases.

[1] = 40° C./75% Relative Humidity (RH), open exposure

Solid state stability: HPLC assay [1]: 97 % initial | Solid state stability: degradation observed [1]: No significant degradation observed | Solid state stability: HPLC assay (50° C., closed): 99 % initial | Solid state stability: degradation observed (50° C., closed): No significant degradation observed
SMILES: CN(CCOc1ccc(CC2SC(=O)NC2=O)cc1)c1ccccn1.O=C(O)C(O)C(O)C(=O)O (racemic) [DL-Tartrate, 5-[4-[2-(N-methyl-N-(2-pyridyl)amino)ethoxy]benzyl]thiazolidine-2,4-dione DL tartrate]
